Calls of active or inactive are those of the source. How the source made its calls: active means viability on the fitted dose curve at most 10% of control; inactive means the rest.
Tested on: KRAS patient-derived spheroids with HUVEC/MSC, viability
Test: Anticancer human tumor 323965-272-R-J2-PDC patient-derived pancreatic carcinoma cell line growth inhibition [KRAS2]
Details: for viability, T/C: stronger effect = lower value
From the text: Multicellular complex tumor spheroid response to RAS pathway inhibitors in combination with a targeted agents in patient-derived cell lines with oncogenic KRAS variants from multiple cancer types
A high-throughput screen of multi-cell type tumor spheroids was designed to identify active combinations of targeted small molecules and KRAS pathway inhibitors. Complex spheroids include a stromal component modeled by human endothelial cells (HUVEC) and fibroblasts modeled by human mesenchymal stem cells (MSCs). The concentration ranges selected for each drug and investigational agent were based upon clinically achievable concentrations if the clinical Cmax of the agent was known.
Compounds. The drugs and investigational agents: BI-3406 (NSC825286), BAY-293 (NSC824723), batoprotafib (TNO155; NSC825523), sotorasib (AMG 510; NSC818433), MRTX1257 (NSC819558), elimusertib (BAY 1895344; NSC800525), molibresib (GSK525762; NSC774829), temuterkib (LY3214996; NSC803410), venetoclax (NSC766270), alisertib (NSC759677), olaparib (NSC753686), talazoparib (NSC767125), erdafitinib (NSC781556), ipatasertib (NSC767898), cabozantinib (NSC761068), nintedanib (NSC756659), abemaciclib (NSC768073), docetaxel (NSC628503), trametinib (NSC758246), and sapanisertib (NSC764658) were obtained from the National Cancer Institute (NCI) Developmental Therapeutics Program Chemical Repository. The FDA-approved anticancer drug set is available from the Developmental Therapeutics Program. […] The stock solutions were prepared in dimethyl sulfoxide (DMSO, Sigma-Aldrich, St. Louis, MO, cat. D2650) at 800-fold the tested concentration and stored at -70 degrees C prior to their use. All drugs and investigational agents were tested over a range starting from a high concentration at or near the clinical Cmax and decreasing in half-log increments. If the clinical Cmax for an agent had not been determined, the highest concentration tested was 10 microM.
Cell Culture. All cells were maintained in an incubator at 37 degrees C and 5% CO2 with 95% humidity. The PDC lines were cultured according to standard operating procedures established by the NCI PDMR (https://pdmr.cancer.gov/sops/default.htm). Briefly, all PDCs were thawed and cultured in Matrigel-coated flasks prepared with a working solution of 1X Ham's F-12 nutrient mix, without supplementation (Invitrogen, Waltham, MA, cat. 11765054), 100 U/mL penicillin-streptomycin (Invitrogen, cat. 15140122), and 2.5% Matrigel (Corning Inc., Corning, NY, cat. 354248) for the first three passages. All PDCs were cultured in complete DMEM/F-12 media containing advanced DMEM/F-12 (Invitrogen, cat. 12634028), 4.9% defined fetal bovine serum, heat inactivated (HyClone Laboratories Inc., Logan, UT, cat. SH30070.03HI), 389 ng/mL hydrocortisone (Sigma-Aldrich, cat. H4001), 9.7 ng/mL human EGF recombinant protein (Invitrogen, cat. PHG0313), 23.4 microg/mL adenine (Sigma-Aldrich, cat. A2786), 97.3 U/mL penicillin-streptomycin (Invitrogen, cat. 15140122), 1.9 mM L-glutamine (Invitrogen, cat. 25030081), and 9.7 microM Y-27632 dihydrochloride (Tocris Bioscience, Bristol, United Kingdom, cat. 1254). The PDCs were cultured in complete DMEM/F12 media without 9.7 microM Y-27632 dihydrochloride for at least two passages prior to the screen. The established cell line HOP-62 was cultured in RPMI 1640 medium, HEPES (Invitrogen, cat. 22400105) with 10% defined fetal bovine serum (HyClone Laboratories Inc., cat. SH30070.03) and 2 mM L-glutamine (Invitrogen, cat. 25030081). The pooled donor HUVEC were cultured in endothelial cell growth medium 2 (PromoCell, Heidelberg, Germany, cat. C-22011) and the hMSC were cultured in mesenchymal stem cell growth medium 2 (PromoCell, cat. C-28009). For all experiments, HUVEC and hMSC were used at passages </=5, while the malignant cell lines were used at passages </=15. […]

[1] = curve of first compound, second compound 0.0316 µM
[2] = curve of first compound, second compound 0.1 µM
[3] = curve of first compound, second compound 0.316 µM
[4] = curve of first compound, second compound 1 µM
[5] = curve of first compound, second compound 3.16 µM
[6] = second compound 0.0316 µM, first compound 0.0316 µM
[7] = second compound 0.0316 µM, first compound 0.1 µM
[8] = second compound 0.0316 µM, first compound 0.316 µM
[9] = second compound 0.0316 µM, first compound 1 µM
[10] = second compound 0.0316 µM, first compound 3.16 µM
[11] = second compound 0.1 µM, first compound 0.0316 µM
[12] = second compound 0.1 µM, first compound 0.1 µM
[13] = second compound 0.1 µM, first compound 0.316 µM
[14] = second compound 0.1 µM, first compound 1 µM
[15] = second compound 0.1 µM, first compound 3.16 µM
[16] = second compound 0.316 µM, first compound 0.0316 µM
[17] = second compound 0.316 µM, first compound 0.1 µM
[18] = second compound 0.316 µM, first compound 0.316 µM
[19] = second compound 0.316 µM, first compound 1 µM
[20] = second compound 0.316 µM, first compound 3.16 µM
[21] = second compound 1 µM, first compound 0.0316 µM
[22] = second compound 1 µM, first compound 0.1 µM
[23] = second compound 1 µM, first compound 0.316 µM
[24] = second compound 1 µM, first compound 1 µM
[25] = second compound 1 µM, first compound 3.16 µM
[26] = second compound 3.16 µM, first compound 0.0316 µM
[27] = second compound 3.16 µM, first compound 0.1 µM
[28] = second compound 3.16 µM, first compound 0.316 µM
[29] = second compound 3.16 µM, first compound 1 µM
[30] = second compound 3.16 µM, first compound 3.16 µM
[31] = curve of first compound, second compound 10 µM
[32] = second compound 0.1 µM, first compound 10 µM
[33] = second compound 0.316 µM, first compound 10 µM
[34] = second compound 1 µM, first compound 10 µM
[35] = second compound 3.16 µM, first compound 10 µM
[36] = second compound 10 µM, first compound 0.0316 µM
[37] = second compound 10 µM, first compound 0.1 µM
[38] = second compound 10 µM, first compound 0.316 µM
[39] = second compound 10 µM, first compound 1 µM
[40] = second compound 10 µM, first compound 3.16 µM
[41] = second compound 10 µM, first compound 10 µM
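Wherever IC50 is given: spheroids exposed to agents for 7 days.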
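Wherever viability, T/C is given: spheroids exposed to agents for 7 days.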

| SMILES | IC50 [2] | IC50 [3] | IC50 [4] | IC50 [5] | viability, T/C [11] | viability, T/C [12] | viability, T/C [13] | viability, T/C [14] | viability, T/C [15] | viability, T/C [16] | viability, T/C [17] | viability, T/C [18] | viability, T/C [19] | viability, T/C [20] | viability, T/C [21] | viability, T/C [22] | viability, T/C [23] | viability, T/C [24] | viability, T/C [25] | viability, T/C [26] | further results |
| --- | --- | --- | --- | --- | --- | --- | --- | --- | --- | --- | --- | --- | --- | --- | --- | --- | --- | --- | --- | --- | --- |
| CC1COCCN1c1cc(-c2ccnn2C)c2ccnc(-c3ccn[nH]3)c2n1 (stereo unspecified) + C=CC(=O)N1CCN(c2nc(OCC3CCCN3C)nc3c2CCN(c2cccc4cccc(C)c24)C3)CC1CC#N | 12 nM | < 10 nM | < 10 nM | < 10 nM | 27.4% | 15.2% | 14.8% | 12.9% | 12.1% | 21.7% | 14% | 12.2% | 11.2% | 10.6% | 18.2% | 10.8% | 11.1% | 12.2% | 11.8% | 4.03% | IC50 [1]: < 10 nM; viability, T/C (second compound 0.0316 µM, first compound 0.01 µM): 49.2%; viability, T/C [6]: 26.8%; viability, T/C [7]: 18.7%; viability, T/C [8]: 16.4%; viability, T/C [9]: 13.9%; viability, T/C [10]: 12.6%; viability, T/C (second compound 0.1 µM, first compound 0.01 µM): 54.5%; viability, T/C (second compound 0.316 µM, first compound 0.01 µM): 41.4%; viability, T/C (second compound 1 µM, first compound 0.01 µM): 33%; viability, T/C (second compound 3.16 µM, first compound 0.01 µM): 5.59%; viability, T/C [27]: 3.06%; viability, T/C [28]: 1.93%; viability, T/C [29]: 1.48%; viability, T/C [30]: 2.61% |
| CCN1CCN(Cc2ccc(Nc3ncc(F)c(-c4cc(F)c5nc(C)n(C(C)C)c5c4)n3)nc2)CC1 |  |  |  |  |  |  |  |  |  |  |  |  |  |  |  |  |  |  |  |  | viability, T/C (compound 0.00316 µM): 93.4% [middle of 5 runs]; viability, T/C (compound 0.0316 µM): 76.6% [middle of 5 runs]; viability, T/C (compound 0.1 µM): 61% [middle of 5 runs]; viability, T/C (compound 0.316 µM): 62.1% [middle of 5 runs]; viability, T/C (compound 1 µM): 62.6% [middle of 5 runs]; IC50 (curve of compound): > 1000 nM |
| O=C(c1cc(Cc2n[nH]c(=O)c3ccccc23)ccc1F)N1CCN(C(=O)C2CC2)CC1 + CC1OCC2(CCN(c3cnc(Sc4ccnc(N)c4Cl)c(N)n3)CC2)C1N | > 10000 nM | > 10000 nM | 9440 nM | < 31.6 nM | 73.2% | 73.4% | 82.2% | 80.1% | 82.3% | 60.9% | 67.9% | 65.8% | 67.3% | 61.3% | 101% | 106% | 102% | 101% | 88.5% | 36.6% | IC50 [31]: < 31.6 nM; viability, T/C [32]: 53.7%; viability, T/C [33]: 40.1%; viability, T/C [34]: 47.8%; viability, T/C [27]: 40.9%; viability, T/C [28]: 41.4%; viability, T/C [29]: 34.8%; viability, T/C [30]: 36.8%; viability, T/C [35]: 24.9%; viability, T/C [36]: 33.1%; viability, T/C [37]: 33.1%; outcome [38]: inactive; viability, T/C [39]: 28%; viability, T/C [40]: 23.7%; viability, T/C [41]: 19% |
| O=C(c1cc(Cc2n[nH]c(=O)c3ccccc23)ccc1F)N1CCN(C(=O)C2CC2)CC1 + COc1cc2nc(C)nc(NC(C)c3cc(N)cc(C(F)(F)F)c3)c2cc1OC1CCOC1 | > 10000 nM | > 10000 nM | > 10000 nM | > 10000 nM | 101% | 107% | 94.1% | 98.8% | 88% | 90.3% | 81% | 83.5% | 84.9% | 78.9% | 102% | 103% | 95.5% | 99% | 94.6% | 81.5% | IC50 [31]: > 10000 nM; viability, T/C [32]: 59.1%; viability, T/C [33]: 57.7%; viability, T/C [34]: 50.2%; viability, T/C [27]: 82.2%; viability, T/C [28]: 76.1%; viability, T/C [29]: 83.2%; viability, T/C [30]: 76.9%; viability, T/C [35]: 52.5%; viability, T/C [36]: 76.7%; viability, T/C [37]: 76.3%; viability, T/C [38]: 78.8%; viability, T/C [39]: 75.8%; viability, T/C [40]: 75.9%; viability, T/C [41]: 51.2% |
| CC1OCC2(CCN(c3cnc(Sc4ccnc(N)c4Cl)c(N)n3)CC2)C1N (stereo unspecified) + C=CC(=O)N1CCN(c2nc(OCC3CCCN3C)nc3c2CCN(c2cccc4cccc(C)c24)C3)CC1CC#N | < 31.6 nM | < 31.6 nM | < 31.6 nM | < 31.6 nM | 38.4% | 31.9% | 21.5% | 15.1% | 10.7% | 41% | 30.5% | 18.4% | 17% | 10.8% | 35.2% | 28.9% | 15.7% | 13.5% | 11.6% | 1.93% | IC50 [1]: 36.9 nM; viability, T/C [6]: 51.4%; viability, T/C [7]: 39.2%; viability, T/C [8]: 24.4%; viability, T/C [9]: 19.3%; viability, T/C [10]: 12.3%; viability, T/C (second compound 0.0316 µM, first compound 10 µM): 9.85%; viability, T/C [32]: 10.8%; viability, T/C [33]: 9.7%; viability, T/C [34]: 10%; viability, T/C [27]: 1.12%; viability, T/C [28]: 0.53%; viability, T/C [29]: 0.65%; viability, T/C [30]: 1.07%; viability, T/C [35]: 1.33% |
